Relative potency data for 4 compounds are collected here from ChEMBL document CHEMBL1122427, “Structure-activity studies of highly potent cyclic [Cys4,Cys10]Melanotropin analogues” (J Med Chem, 1983).

For one assay, the system named is lizard. In words: Evaluated for relative potency in stimulating melanosome dispersion against Lizard skin (Anolis carolinensis). In kind it is functional.
Another assay deals with frog. Description: Evaluated for relative potency in stimulating melanosome dispersion against Frog skin melanophores (Rana pipiens). The format is functional.

Consider `CC(=O)N[C@@H]1CSSC[C@H](C(=O)N[C@H](CCCCN)C(=O)N2CCC[C@@H]2C(=O)N[C@@H](C(N)=O)C(C)C)NC(=O)[C@@H](Cc2c[nH]c3ccccc23)NC(=O)[C@H](CCCN=C(N)N)NC(=O)[C@@H](Cc2ccccc2)NC(=O)[C@H](Cc2c[nH]cn2)NC(=O)[C@@H](CCC(=O)O)NC1=O`, for which the Relative potency was 1.6 with lizard and 10000 in the assay with frog.
The like results for `CC(=O)N[C@@H]1CSSC[C@H](C(N)=O)NC(=O)[C@@H](Cc2c[nH]c3ccccc23)NC(=O)[C@H](CCCN=C(N)N)NC(=O)[C@@H](Cc2ccccc2)NC(=O)[C@H](Cc2c[nH]cn2)NC(=O)[C@@H](CCC(=O)O)NC1=O` were, in that order, 0.003 and 0.07.
In the same order, the values of `CC(=O)N[C@@H](CO)C(=O)N[C@@H](Cc1ccc(O)cc1)C(=O)N[C@@H](CO)C(=O)N[C@@H]1CSSC[C@H](C(=O)N[C@H](CCCCN)C(=O)N2CCC[C@@H]2C(=O)N[C@@H](C(N)=O)C(C)C)NC(=O)[C@@H](Cc2c[nH]c3ccccc23)NC(=O)[C@H](CCCN=C(N)N)NC(=O)[C@@H](Cc2ccccc2)NC(=O)[C@H](Cc2c[nH]cn2)NC(=O)[C@@H](CCC(=O)O)NC1=O` are 32 and 10000.
As to `CSCC[C@H](NC(C)=O)C(=O)N[C@@H](CCC(=O)O)C(=O)N[C@@H](Cc1c[nH]cn1)C(=O)N[C@@H](Cc1ccccc1)C(=O)N[C@@H](CCCN=C(N)N)C(=O)N[C@@H](Cc1c[nH]c2ccccc12)C(=O)NCC(N)=O`, the Relative potency in the assay with lizard came out at 0.02; with frog, 0.0006.
